According to ChEMBL document CHEMBL1151722, “Sesquiterpenoids and phenylpropanoids from Chloranthus serratus” (2008):
Values after ≈ are worked out from the molar mass of the structure shown.

Tested on: Helicobacter pylori
Test: Antimicrobial activity against Helicobacter pylori-SS1
Type: functional

| MIC | SMILES |
| --- | --- |
| 25 µg/mL (≈ 96 µM) | CC1=C2C(=O)c3c(C)coc3C[C@@]2(C)[C@H](O)CC1=O [CHLORANTENE D] |
| 25 µg/mL (≈ 102 µM) | C=C1CC/C=C(\C)C(=O)c2occ(C)c2C(=O)C1 [CHLORANTENE E] |
| 25 µg/mL (≈ 102 µM) | C=C[C@]1(C)C(=O)c2occ(C)c2C(=O)[C@H]1C(=C)C [CHLORANTENE F] |
| 25 µg/mL (≈ 106 µM) | C=C1CCC[C@]2(C)CC[C@@](O)(C(C)C)C(=O)[C@@H]12 [CHLORANTENE G] |
